Results as given in patent US20250263376A1, “(E)-N-CINNAMOYLAMINOALKANOLS WITH MELANOGENESIS INHIBITORY ACTIVITY” (Uniwersytet Jagiellonski, priority 2024, published 2025).

Assays:
CHO-K1 cells = test: Cytotoxicity (MTT) in CHO-K1 cells before the micronucleus test; assay type: cell-based, Chinese hamster; settings: 24 hours
Method: The assay was performed using a Chinese hamster ovary cell line (CHO-K1) purchased from the American Type Culture Collection (ATCC). The cells were cultured in F-12K medium with the addition of 10% fetal bovine serum (FBS) and antibiotics (streptomycin/penicillin) in an incubator at 37° C. and 5% CO2 concentration). Before the actual micronucleus test, a cytotoxicity assessment was performed to ensure that the actual test was performed only at safe concentrations. For this purpose, cells were transferred to 96-well plates and incubated with the tested compounds for 24 hours. After this time, the MTT test was performed and cell viability was assessed in comparison to the control group (cells cultured with DMSO at the same concentration as in the case of the tested samples).

tyrosinase from mushroom [1] = biological target: T1, tyrosinase from mushroom (Agaricus bisporus, UniProt C7FF04); test: Inhibition of commercial mushroom tyrosinase, substrate L-tyrosine; assay type: biochemical; settings: for inhibition at 500 µM: read-out: Tyrosinase inhibition with L-tyrosine [%]
T1 sequence (C7FF04 2-392): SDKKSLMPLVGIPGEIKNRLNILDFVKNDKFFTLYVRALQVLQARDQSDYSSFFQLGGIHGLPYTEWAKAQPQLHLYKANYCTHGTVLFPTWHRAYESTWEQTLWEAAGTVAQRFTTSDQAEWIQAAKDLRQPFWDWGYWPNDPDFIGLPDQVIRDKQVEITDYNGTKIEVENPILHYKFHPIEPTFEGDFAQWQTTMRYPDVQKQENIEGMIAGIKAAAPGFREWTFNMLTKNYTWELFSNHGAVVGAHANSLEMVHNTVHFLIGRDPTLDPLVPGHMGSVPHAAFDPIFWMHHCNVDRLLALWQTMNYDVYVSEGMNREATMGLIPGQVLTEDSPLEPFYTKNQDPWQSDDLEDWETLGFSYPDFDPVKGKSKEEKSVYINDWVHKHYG
T1 sequence (G1K3P4 entry or part of it, further chain): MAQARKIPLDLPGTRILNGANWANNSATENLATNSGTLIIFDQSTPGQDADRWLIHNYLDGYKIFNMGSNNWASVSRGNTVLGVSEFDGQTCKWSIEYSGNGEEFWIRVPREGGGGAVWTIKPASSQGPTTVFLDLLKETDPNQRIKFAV
Method: (§1) Studies on the Inhibition of the Activity of Commercial Tyrosinase from Mushroom (Sigma: T3824)
(§2) The following substrates were used for the enzymatic reaction: L-tyrosine and L-3,4-dihyroxyphenylalanine (L-DOPA). Both substrates were used in independent experiments. According to the literature, the use of L-DOPA enables the assessment of tyrosinase diphenolase activity, and L-tyrosine—the tyrosinase monophenolase activity. The determinations were performed in 96-well plates, in each well there was placed: 170 μL or 127.5 μL of 50 mM phosphate buffer (pH=6.8) with tyrosinase (1U/well or 3U/well) and 10 μL of a solution of the tested compound in DMSO (the final concentration in the well was 500 μM, 250 μM or 125 μM). The negative control used 10 u L of pure solvent (DMSO). To initiate the reaction, an appropriate substrate was added: L-tyrosine (62.5 μL of solution in phosphate buffer) or L-DOPA (20 μL of solution in phosphate buffer). After a 25-minute incubation, the absorbance was measured at 475 nm using a microplate reader. The percentage of inhibition of tyrosinase activity was calculated using the formula: [(AC−AT)/[…], where AC—is the absorbance of the negative control, AT—is the absorbance of the sample containing the tested compound.

S. typhimurium TA1537 = test: Ames microplate test, TA1537; assay type: cell-based, Salmonella typhimurium
Method: (§3) Bacteria were grown overnight in growth medium.

S. typhimurium TA98 = test: Ames microplate test, TA98; assay type: cell-based, Salmonella typhimurium
Method: as §3

S. typhimurium TA1535 = test: Ames microplate test, TA1535;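 also: bacteria exposed 90 min at 37 °C in exposure medium, then 48 h in indicator medium in 384-well plates, yellow (revertant) wells counted per condition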
tyrosinase from mushroom [2] = biological target: T1, tyrosinase from mushroom; test: Inhibition of commercial mushroom tyrosinase, substrate L-DOPA; assay type: biochemical; settings: for inhibition at 500 µM: read-out: Tyrosinase inhibition with L-DOPA [%]
Method: as §1, §2

S. typhimurium TA100 = test: Ames microplate test, TA100; assay type: cell-based, Salmonella typhimurium
Method: (§4) The study used the Ames microplate test (Ames MPF™ Penta 2 by Xenometrix, Allschwil, Switzerland). Growth medium, exposure medium, indicator medium, positive controls, hepatic microsomal fraction, NADP, glucose-6-phosphate, Salmonella typhimurium and Escherichia coli strains were components of the purchased experimental kit. Bacteria were grown overnight in growth medium. They were then exposed to the test compound at the appropriate concentration in exposure medium without or with the rat microsomal fraction S9 in 24-well plates for 90 min at 37° C. with shaking. Then, indicator medium was added to the wells and pipetted into 384-well plates, which were incubated for 48 hours at 37° C. without shaking. Results were assessed by counting the wells in which the medium turned yellow for each experimental condition.

[3] = system: B16-F10 murine melanoma cell line; test: Cytotoxicity (MTT) in B16-F10 murine melanoma cells; assay type: cell-based; settings: 48 h
Method: Cytotoxicity Assessment in the B16-F10 Murine Melanoma Cell Line (ATTC CRL-6745)—Preliminary Safety Assessment for Subsequent Studies
In order to determine safe doses of compounds for testing the inhibition of melanogenesis in a murine melanoma cell line, cytotoxicity tests were performed. Cytotoxicity was determined by the colorimetric method using MTT ([3-(4,5-dimethyl-2-thiazolyl)-2,5-diphenyl-2H-tetrazolium bromide, Sigma M5655). For this purpose, cells were transferred to 96-well plates in an amount of 5000/well. After 24 h of culture in an incubator in F10-Ham medium with 1% FBS, the tested compounds at various concentrations were added to the wells together with fresh medium. DMSO was added to the medium in a negative control. The MTT test was performed after further culture for 48 h. Then the medium was removed and the formed formazan crystals were dissolved in DMSO. The absorbance was measured at 570 nm in a plate reader and the result was compared to the control (DMSO), which was 100%. The percentage of viability was calculated using the formula: [AT/AC*100], where AT is the absorbance of the test sample, AC—absorbance of the control sample.

E. coli WP2 = test: Ames microplate test, E. coli WP2;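 also: bacteria exposed to compound for 90 min at 37 °C in 24-well plates, then transferred with indicator medium to 384-well plates and incubated 48 h before yellow well counting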
Method: as §4

[4] = Lipophilicity coefficient RM0 by reversed phase thin layer chromatography; assay type: physicochemical; settings: RP-18 TLC, methanol/phosphate buffer pH=7.4
Method: Confirmation of the identity and purity of the obtained compounds consisted in the registration and interpretation of 1H NMR and 13C NMR spectra (the spectra were recorded using an ECZR 500 MHZ (JEOL) series FT-NMR spectrophotometer), as well as the registration and interpretation of LC-MS spectra (the spectra were recorded using Acquita UPLC system (Waters) coupled with a Waters TQD mass spectrometer). The melting point was measured using the open capillary method in the IA9300 device (Electrothermal). The lipophilicity coefficient RM0 was determined by reversed phase thin layer chromatography. In the study, aluminum plates 20×20 cm covered with modified silica gel RP-18 F254 (Merck) were used as the solid phase. The mobile phase consisted of solutions of methanol and 100 mM phosphate buffer (pH=7.4), characterized by a variable methanol content ranging from 95 to 65% (v/v). The tested compounds were dissolved in methanol to obtain solutions with a concentration of 1 mg/mL. Then, […] of the solutions prepared in this way were transferred to the starting line on aluminum plates, which were then placed in chromatographic chambers previously saturated with mobile phase vapors for at least 1 hour. All activities, including the development of chromatograms, were carried out at room temperature. After developing the chromatograms to approximately 1-2 cm from the end of the plate, the plates were dried and then the distance traveled by the tested compounds was visualized under UV light (λ=254 nm). The experiment was performed in duplicate for the specified conditions. For all samples, Rf was calculated according to the formula Rf=a/b, where a—the distance traveled by the tested compound, b—the distance traveled by the mobile phase. Then, the RM parameter was calculated for all samples according to the formula RM=log (1/Rf−1), obtaining a linear relationship between the RM values and the methanol concentration in the mobile phase. The log P coefficient was also calculated using the following computer programs: ACD/ChemSketch 2020.1.2 and ChemDraw 20.0.0.41.

tyrosinase = settings: cited from earlier work

Row | SMILES | % Viability [mean], CHO-K1 (CHO-K1 cells; 100 μM) [%] | % Viability [mean], CHO-K1 (CHO-K1 cells; 150 μM) [%] | % Viability [mean], CHO-K1 (CHO-K1 cells; 200 μM) [%] | inhibition at 500 µM (tyrosinase from mushroom [1]) [%] | Increase in the number of yellow wells compared to the reference level, TA1537 (S. typhimurium TA1537; 0.5 mM, without S9) | Increase in the number of yellow wells compared to the reference level, TA1537 (S. typhimurium TA1537; 1.0 mM, without S9) | Increase in the number of yellow wells compared to the reference level, TA1537 (S. typhimurium TA1537; 2.0 mM, without S9) | Increase in the number of yellow wells compared to the reference level, TA98 (S. typhimurium TA98; 0.5 mM, without S9) | Increase in the number of yellow wells compared to the reference level, TA98 (S. typhimurium TA98; 1.0 mM, without S9) | Increase in the number of yellow wells compared to the reference level, TA98 (S. typhimurium TA98; 2.0 mM, without S9) | Increase in the number of yellow wells compared to the reference level, TA1535 (S. typhimurium TA1535; 0.5 mM, without S9) | Increase in the number of yellow wells compared to the reference level, TA1535 (S. typhimurium TA1535; 1.0 mM, without S9) | Increase in the number of yellow wells compared to the reference level, TA1535 (S. typhimurium TA1535; 2.0 mM, without S9) | inhibition at 500 µM (tyrosinase from mushroom [2]) [%] | Increase in the number of yellow wells compared to the reference level, TA100 (S. typhimurium TA100; 0.5 mM, without S9) | Increase in the number of yellow wells compared to the reference level, TA100 (S. typhimurium TA100; 1.0 mM, without S9) | Cytotoxicity study in B16F10 cells, % viability ([3]; 150 μM) [%] | Cytotoxicity study in B16F10 cells, % viability ([3]; 200 μM) [%] | Cytotoxicity study in B16F10 cells, % viability ([3]; 250 μM) [%] | RM0 [4] | other results
1 | CC(CO)NC(=O)/C=C/c1ccc(Cl)cc1 (centres unmarked) [Compound A-102, (2E)-3-(4-chlorophenyl)-N-(1-hydroxypropan-2-yl)prop-2-enamide] | 84.7 | 69.9 | 87.2 | 75.5 ± 1.8 | 0.33 | 0.00 | 1.00 | 0.24 | 0.24 | 0.35 | 0.55 | 0.14 | 0.89 | 53 ± 1.99 | 1.08 | 0.75 | 80.6 | 83.5 | 75.7 | 2.12 | Increase in the number of yellow wells compared to the reference level, TA100 (S. typhimurium TA100; 2.0 mM, without S9): 0.92; Increase in the number of yellow wells compared to the reference level, E. coli WP2 (E. coli WP2; 0.5 mM, without S9): 0.48; Increase in the number of yellow wells compared to the reference level, E. coli WP2 (E. coli WP2; 1.0 mM, without S9): 1.03; Increase in the number of yellow wells compared to the reference level, E. coli WP2 (E. coli WP2; 2.0 mM, without S9): 0.79
2 | O=C(O)C=Cc1ccc(Cl)cc1Cl [2,4-dichlorocinnamic acid] |  |  |  |  |  |  |  |  |  |  |  |  |  |  |  |  |  |  |  |  | mechanism of tyrosinase inhibition (tyrosinase; literature [6,7]): reversible non-competitive mechanism; IC50 (tyrosinase; literature [7], read-out: IC50, tyrosinase inhibition): 295 µM
3 | CCC(O)CNC(=O)/C=C/c1ccc(Cl)cc1 (centres unmarked) [Compound A-67, (2E)-3-(4-chlorophenyl)-N-(2-hydroxybutyl)prop-2-enamide] | 96.0 | 90.3 | 84.0 | 79.2 ± 1.2 | 0.00 | 0.18 | 0.82 | 0.27 | 1.07 | 1.07 | 0.30 | 0.45 | 1.04 | 60.8 ± 1.99 | 1.53 | 0.93 | 73.6 | 87.8 | 84.4 | 2.46 | Increase in the number of yellow wells compared to the reference level, TA1537 (S. typhimurium TA1537; 0.5 mM, + S9): 1.00; Increase in the number of yellow wells compared to the reference level, TA1537 (S. typhimurium TA1537; 1.0 mM, + S9): 1.33; Increase in the number of yellow wells compared to the reference level, TA1537 (S. typhimurium TA1537; 2.0 mM, + S9): 0.00; Increase in the number of yellow wells compared to the reference level, TA98 (S. typhimurium TA98; 0.5 mM, + S9): 0.31; Increase in the number of yellow wells compared to the reference level, TA98 (S. typhimurium TA98; 1.0 mM, + S9): 0.94; Increase in the number of yellow wells compared to the reference level, TA98 (S. typhimurium TA98; 2.0 mM, + S9): 1.04; Increase in the number of yellow wells compared to the reference level, TA1535 (S. typhimurium TA1535; 0.5 mM, + S9): 0.27; Increase in the number of yellow wells compared to the reference level, TA1535 (S. typhimurium TA1535; 1.0 mM, + S9): 0.54; Increase in the number of yellow wells compared to the reference level, TA1535 (S. typhimurium TA1535; 2.0 mM, + S9): 0.13; Increase in the number of yellow wells compared to the reference level, TA100 (S. typhimurium TA100; 0.5 mM, + S9): 0.78; Increase in the number of yellow wells compared to the reference level, TA100 (S. typhimurium TA100; 1.0 mM, + S9): 0.64; Increase in the number of yellow wells compared to the reference level, TA100 (S. typhimurium TA100; 2.0 mM, + S9): 0.31; Increase in the number of yellow wells compared to the reference level, TA100 (S. typhimurium TA100; 2.0 mM, without S9): 0.80; Increase in the number of yellow wells compared to the reference level, E. coli WP2 (E. coli WP2; 0.5 mM, + S9): 0.83; Increase in the number of yellow wells compared to the reference level, E. coli WP2 (E. coli WP2; 0.5 mM, without S9): 0.50; Increase in the number of yellow wells compared to the reference level, E. coli WP2 (E. coli WP2; 1.0 mM, + S9): 0.42; Increase in the number of yellow wells compared to the reference level, E. coli WP2 (E. coli WP2; 1.0 mM, without S9): 1.00; Increase in the number of yellow wells compared to the reference level, E. coli WP2 (E. coli WP2; 2.0 mM, + S9): 1.42; Increase in the number of yellow wells compared to the reference level, E. coli WP2 (E. coli WP2; 2.0 mM, without S9): 0.83
4 | O=C(/C=C/c1ccc(Cl)cc1Cl)NCCCO [H-296/20, (2E)-3-(2,4-dichlorophenyl)-N-(3-hydroxypropyl)prop-2-enamide] |  |  |  | 17.9 ± 7.36 |  |  |  |  |  |  |  |  |  | 18.6 ± 1.67 |  |  | 67.0 | 57.0 | 38.3 | 2.11 | 
5 | O=C(/C=C/c1ccc(Cl)cc1)NCCCCCCO [H-426/21, (2E)-3-(4-chlorophenyl)-N-(6-hydroxyhexyl)prop-2-enamide] |  |  |  |  |  |  |  |  |  |  |  |  |  |  |  |  | 30.3 | 28.2 | 28.3 | 3.02 | inhibition at 125 µM (tyrosinase from mushroom [1]; 125 μM): 39.9 ± 3.21%; inhibition at 125 µM (tyrosinase from mushroom [2]; 125 μM): 30.7 ± 1.82%
